Legend:
Type in all cases: in vivo
[1] = Oral (per os) toxicity (LD50); settings: in vivo, read-out: LD50
DOCA-Na. rat = assay: Comparative antihypertensive activity of polyether ionophores in the DOCA-Na rat (Example 3, Table III); settings: oral, five-day period, daily dose 1/100 of oral LD50 up to 10 mg/kg/day
Method: Using bromolasalocid as a standard for comparison, a number of polyether ionophores were tested for antihypertensive activity. The tests were conducted utilizing single oral dosages in the DOCA-Na. rat over a five-day period with dosing discontinued thereafter. Blood pressure monitoring was carried out for the five-day period and daily after cessation of dosing until blood pressure returned to pre-drug levels. […] The daily dosage was calculated by using one-one hundredth (1/100) of the oral (per os) toxicity (LD50) up to a maximum of 10 mg/kg/day. The antihypertensive activity expressed as AHR (Subacute antihypertensive ratio) was calculated using bromolasalocid as the standard reference (Table III).

DOCA Na hypertensive rat = assay: Antihypertensive activity, subacute oral dosing in the DOCA Na rat (Example 1, Table I)
Method: A test was conducted for antihypertensive activity in the DOCA Na rat. DOCA rats weighing 170 to 210 grams are used in the test. DOCA Na hypertension is induced by unilateral nephrectomy followed by subcutaneous implantation of a 25 mg. desoxycorticosterone (DOCA) pellet. Animals are placed in individual cages receiving 0.9% sodium chloride solution to drink and rat chow diet ad libitum. Two weeks are allowed to elapse from the time of surgery for development of hypertension, i.e., systolic blood pressure of at least 150 mmHg.
Systolic blood pressure and heart rate are measured indirectly from the tail pressure pulse of unanesthetized rats, using a pneumatic pulse transducer. Control readings are taken prior to drug and post drug readings are taken at 1, 3, 6 and 24 hours.
The experimental results are represented as absolute values. Drug-related alterations in systolic blood pressure are expressed as percentage change by comparing control absolute values with post drug absolute values. Compounds are considered active when about a 15% or greater reduction in blood pressure is obtained. However, the reduction in blood pressure must show mathematical significance ([…]).
A derivative of the polyether ionophore, lasalocid, i.e., the bromo derivative of lasalocid, was tested in the above screen. The compound was orally administered for a five-day period by intubation and thereafter dosing was discontinued but blood pressure monitoring was continued. The following table illustrates the results obtained utilizing bromolasalocid as the test drug.

[2] = system: spontaneous hypertensive (SH) rat; assay: Effects on blood pressure in the spontaneous hypertensive (SH) rat (Example 2, Table II)
Method: Test conducted for effects on blood pressure in the spontaneous hypertensive (SH) rat.
Twelve week old spontaneous hypertensive male rats (Okomoto strain) are used as a model in the antihypertensive test.
Systolic blood pressure is measured indirectly from the tail of unanesthetized rats using a pneumatic pulse transducer. Control readings are taken prior to drug administration and post drug readings are taken at 1, 3, 6 and 24 hours.
Drug-related alteration in systolic blood pressure is expressed as percentage change by comparing control absolute values with post drug absolute values.
The results are expressed as absolute values and percent changes from controls.
Compounds are considered active when about a 15% or greater reduction in blood pressure is obtained. However, the reduction in blood pressure must show mathematical significance ([…]). The compound was administered for a five-day period by intubation and thereafter dosing was discontinued but blood pressure monitoring was continued.

## CC[C@@H](C(=O)[C@@H](C)[C@@H](O)[C@H](C)CCc1c(Br)cc(C)c(O)c1C(=O)O)[C@H]1O[C@](CC)([C@H]2CC[C@](O)(CC)[C@H](C)O2)C[C@@H]1C [bromolasalocid]
[1]
  LD50: 1200 mg/kg
DOCA-Na. rat
  ONSET TO MAX. RESPONSE: 4 days
DOCA-Na. rat; monitored until return to pre-drug levels
  DURATION OF EFFECT: 15 days
DOCA Na hypertensive rat; 5 mg/kg per day oral for 5 days, Day 2 am, pre-drug 209
  Average Systolic Blood Pressure Per Group: 206 mmHg
DOCA Na hypertensive rat; 5 mg/kg per day oral for 5 days, Day 2 pm, pre-drug 209
  Average Systolic Blood Pressure Per Group: 194 mmHg
DOCA Na hypertensive rat; 5 mg/kg per day oral for 5 days, Day 3 pm, pre-drug 209
  Average Systolic Blood Pressure Per Group: 191 mmHg
DOCA Na hypertensive rat; 5 mg/kg per day oral for 5 days, Day 4 am, pre-drug 209
  Average Systolic Blood Pressure Per Group: 206 mmHg
DOCA Na hypertensive rat; 5 mg/kg per day oral for 5 days, Day 5 am, pre-drug 209
  Average Systolic Blood Pressure Per Group: 197 mmHg
DOCA Na hypertensive rat; 5 mg/kg per day oral for 5 days, Day 5 pm, pre-drug 209
  Average Systolic Blood Pressure Per Group: 196 mmHg
DOCA Na hypertensive rat; 10 mg/kg per day oral for 5 days, Day 1 pm, pre-drug 217, p<.05
  Average Systolic Blood Pressure Per Group: 192 mmHg
DOCA Na hypertensive rat; 10 mg/kg per day oral for 5 days, Day 2 am, pre-drug 217, p<.05
  Average Systolic Blood Pressure Per Group: 181 mmHg
DOCA Na hypertensive rat; 10 mg/kg per day oral for 5 days, Day 2 pm, pre-drug 217, p<.05
  Average Systolic Blood Pressure Per Group: 166 mmHg
DOCA Na hypertensive rat; 10 mg/kg per day oral for 5 days, Day 3 am, pre-drug 217, p<.05
  Average Systolic Blood Pressure Per Group: 171 mmHg
DOCA Na hypertensive rat; 10 mg/kg per day oral for 5 days, Day 3 pm, pre-drug 217, p<.05
  Average Systolic Blood Pressure Per Group: 163 mmHg
DOCA Na hypertensive rat; 10 mg/kg per day oral for 5 days, Day 4 am, pre-drug 217, p<.05
  Average Systolic Blood Pressure Per Group: 173 mmHg
DOCA Na hypertensive rat; 10 mg/kg per day oral for 5 days, Day 4 pm, pre-drug 217, p<.05
  Average Systolic Blood Pressure Per Group: 157 mmHg
DOCA Na hypertensive rat; 10 mg/kg per day oral for 5 days, Day 5 pm, pre-drug 217, p<.05
  Average Systolic Blood Pressure Per Group: 166 mmHg
DOCA Na hypertensive rat; after oral dosing for the first five consecutive days
  Period for which blood pressure remained below control after drug dosing: 10 days
[2]; 10 mg/kg per day for 5 days, Day 1 pm, pre-drug 227, p<.05
  Average Systolic Blood Pressure Per Group: 211 mmHg
[2]; 10 mg/kg per day for 5 days, Day 2 am, pre-drug 227
  Average Systolic Blood Pressure Per Group: 215 mmHg
[2]; 10 mg/kg per day for 5 days, Day 2 pm, pre-drug 227
  Average Systolic Blood Pressure Per Group: 217 mmHg
[2]; 10 mg/kg per day for 5 days, Day 3 am, pre-drug 227, p<.05
  Average Systolic Blood Pressure Per Group: 203 mmHg
[2]; 10 mg/kg per day for 5 days, Day 3 pm, pre-drug 227, p<.05
  Average Systolic Blood Pressure Per Group: 199 mmHg
[2]; 10 mg/kg per day for 5 days, Day 4 am, pre-drug 227, p<.05
  Average Systolic Blood Pressure Per Group: 193 mmHg
[2]; 10 mg/kg per day for 5 days, Day 4 pm, pre-drug 227, p<.05
  Average Systolic Blood Pressure Per Group: 198 mmHg
[2]; 10 mg/kg per day for 5 days, Day 5 am, pre-drug 227, p<.05
  Average Systolic Blood Pressure Per Group: 200 mmHg
[2]; 10 mg/kg per day for 5 days, Day 5 pm, pre-drug 227, p<.05
  Average Systolic Blood Pressure Per Group: 209 mmHg
[2]; 10 mg/kg per day for 5 days, Day 8 am, pre-drug 227, p<.05
  Average Systolic Blood Pressure Per Group: 199 mmHg
[2]; 20 mg/kg per day for 5 days, Day 1 pm, pre-drug 211
  Average Systolic Blood Pressure Per Group: 201 mmHg
[2]; 20 mg/kg per day for 5 days, Day 2 am, pre-drug 211
  Average Systolic Blood Pressure Per Group: 209 mmHg
[2]; 20 mg/kg per day for 5 days, Day 2 pm, pre-drug 211
  Average Systolic Blood Pressure Per Group: 200 mmHg
[2]; 20 mg/kg per day for 5 days, Day 3 am, pre-drug 211
  Average Systolic Blood Pressure Per Group: 214 mmHg
[2]; 20 mg/kg per day for 5 days, Day 3 pm, pre-drug 211
  Average Systolic Blood Pressure Per Group: 209 mmHg
[2]; 20 mg/kg per day for 5 days, Day 4 am, pre-drug 211
  Average Systolic Blood Pressure Per Group: 205 mmHg
[2]; 20 mg/kg per day for 5 days, Day 4 pm, pre-drug 211
  Average Systolic Blood Pressure Per Group: 204 mmHg
[2]; 20 mg/kg per day for 5 days, Day 5 am, pre-drug 211
  Average Systolic Blood Pressure Per Group: 210 mmHg
[2]; 20 mg/kg per day for 5 days, Day 5 pm, pre-drug 211, p<.05
  Average Systolic Blood Pressure Per Group: 187 mmHg
[2]; 20 mg/kg per day for 5 days, Day 8 am, pre-drug 211
  Average Systolic Blood Pressure Per Group: 210 mmHg
[2]; 50 mg/kg per day for 5 days, Day 1 pm, pre-drug 215
  Average Systolic Blood Pressure Per Group: 208 mmHg
[2]; 50 mg/kg per day for 5 days, Day 2 am, pre-drug 215, p<.05
  Average Systolic Blood Pressure Per Group: 193 mmHg
[2]; 50 mg/kg per day for 5 days, Day 2 pm, pre-drug 215, p<.05
  Average Systolic Blood Pressure Per Group: 176 mmHg
[2]; 50 mg/kg per day for 5 days, Day 3 am, pre-drug 215, p<.05
  Average Systolic Blood Pressure Per Group: 175 mmHg
[2]; 50 mg/kg per day for 5 days, Day 3 pm, pre-drug 215, p<.05
  Average Systolic Blood Pressure Per Group: 160 mmHg
[2]; 50 mg/kg per day for 5 days, Day 4 am, pre-drug 215, p<.05
  Average Systolic Blood Pressure Per Group: 183 mmHg
[2]; 50 mg/kg per day for 5 days, Day 4 pm, pre-drug 215, p<.05
  Average Systolic Blood Pressure Per Group: 169 mmHg
[2]; 50 mg/kg per day for 5 days, Day 5 am, pre-drug 215, p<.05
  Average Systolic Blood Pressure Per Group: 184 mmHg
[2]; 50 mg/kg per day for 5 days, Day 5 pm, pre-drug 215, p<.05
  Average Systolic Blood Pressure Per Group: 167 mmHg
[2]; 50 mg/kg per day for 5 days, Day 8 am, pre-drug 215
  Average Systolic Blood Pressure Per Group: 207 mmHg
[2]; 100 mg/kg per day for 5 days, Day 1 pm, pre-drug 218, p<.05
  Average Systolic Blood Pressure Per Group: 176 mmHg
[2]; 100 mg/kg per day for 5 days, Day 2 am, pre-drug 218, p<.05
  Average Systolic Blood Pressure Per Group: 185 mmHg
[2]; 100 mg/kg per day for 5 days, Day 2 pm, pre-drug 218, p<.05
  Average Systolic Blood Pressure Per Group: 142 mmHg
[2]; 100 mg/kg per day for 5 days, Day 3 am, pre-drug 218, p<.05
  Average Systolic Blood Pressure Per Group: 128 mmHg
[2]; 100 mg/kg per day for 5 days, Day 3 pm, pre-drug 218, p<.05
  Average Systolic Blood Pressure Per Group: 123 mmHg
[2]; 100 mg/kg per day for 5 days, Day 4 am, pre-drug 218, p<.05
  Average Systolic Blood Pressure Per Group: 113 mmHg
[2]; 100 mg/kg per day for 5 days, Day 4 pm, pre-drug 218, p<.05
  Average Systolic Blood Pressure Per Group: 131 mmHg
[2]; 100 mg/kg per day for 5 days, Day 5 pm, pre-drug 218, p<.05
  Average Systolic Blood Pressure Per Group: 108 mmHg

— patent US4161520A, “Method of treating hypertension” (priority 1976, dated 1979)
